The text below walks through data of patent US7932422B2, “Use of chlorine guanabenz derivatives for treating polyglutamine expansion associated diseases” (priority 2006, dated 2011).

“Also recorded” adds a separate entry of the source. Counter-ions that a name gives are not always drawn.

The test system of data set [1] is N-terminal fragment of Huntingtin derivative with 48 glutamines (Htt48) in 293T cells. As to the kind of experiment: 293T cells transfected with Htt48, immunoblot of SDS lysates with Htt 2B4 antibody. In kind it is cell-based. Conditions: for activity on Htt48 accumulation: 293T cells, up to 100 μM. In general terms: Immunoblotting shows a protein as a band on a membrane.

The test system of data set [2] is yeast prions. In kind it is cell-based. Conditions: erg6Δ [PSI+] yeast strain, compound spotted on filter, halo of red [psi-] colonies.
Data set [3] concerns aggregated Htt48 in 293T cells. As to the kind of experiment: filter retardation assay of lysates of Htt48-transfected 293T cells. The conditions noted are these: lysates 48 h post-transfection. It is filed as cell-based.
The subject of data set [4] is full length endogenous Huntingtin in 293T cells. Briefly: immunoblot of full length endogenous Huntingtin in 293T cells. It is filed as cell-based. Conditions: same extracts as for the N-terminal fragment. As to the method: b: 293T cells were transfected with Htt48 and treated with the indicated compounds in DMSO at the indicated doses or DMSO alone 4 h posttransfection. SDS lysates collected 48 h post-transfection were analyzed on a 10% SDS-PAGE followed by immunoblot with Htt 2B4 and vimentin antibodies. To reveal full length Huntingtin, the same extracts were analyzed on a 4.5% SDS-PAGE followed by immunoblot PAGE followed by immunoblot with an oligoclonal mixture of Huntingtin antibodies: 2B4, 4C8 and 2E8.
(§1) Psi114 and Cl-Psi114 reduce polyQ accumulation both in their soluble and insoluble form. In developing therapeutic approaches, targeting specifically the pathogenic fragment of Huntingtin is a fundamental concern because Huntingtin is an essential gene. The inventors tested the effect of active compounds on endogenous full length Huntingtin in the same extracts as tested for the N-terminal fragment of Huntingtin. Psi114 and Cl-Psi114 have no effect on the levels of full length endogenous Huntingtin in 293T cells while these 2 compounds effectively reduce accumulation of the N-terminal pathogenic fragment of Huntingtin (FIG. 1b). Cl-Psi114 has also no effect on the level of full length endogenous Huntingtin in HD patient lymphoblastoid cell line.

Data set [5] relates to truncated huntingtin with 73Q repeats (T73) in NG108-15 cells. Briefly: NG108-15 neuronal-like cell model of HD, immunoblot of T73. It is filed as cell-based. The conditions noted are these: drugs added 12 h post-induction, extracts 3 days after treatment. As to the method:
(§2) NG108-15 cells were induced for differentiation and T73 expression as described in Lunkes et al, 2002 and treated with the indicated compounds in DMSO at the indicated doses or DMSO alone 12 h post-induction. SDS lysates collected […] were analyzed by SDS-PAGE followed by immunoblot with Htt 2B4 and vimentin antibodies. Images were acquired and quantified with the Chemi-Smart system (Vilber Lourmat). Quantification of T73 signals is presented as histograms. Signal from DMSO treated cells is used as a reference and set as 1.
The Guanabenz (Psi114) and Chloroguanabenz (Cl-Psi114) effects were so far tested in actively dividing yeast and 293T cells (Lunkes et al., 1998). Because neurons are the target of Huntington and the threat for accumulation of misfolded proteins being exacerbated in neuronal, post-mitotic cells, the inventors next tested the effect of Psi114 and Cl-Psi114 in NG10815 neuronal-like cell model of HD. NG108-15 cells were induced for expression of truncated huntingtin with 73Q repeats (T73) and differentiation.
Drugs were added 12 h post-induction at the indicated doses. Protein extracts were collected 3 days after treatment and analyzed by immunoblots. […] The aggregates formed in these cells were below the detection level of the filter retardation assay precluding a robust quantitative analysis of the effects of the molecules on aggregate. […]

Data set [6] has as its system NG108-15 cells. As to the kind of experiment: vimentin level in NG108-15 neuronal-like cell model of HD. It is filed as cell-based. The conditions noted are these: drugs added 12 h post-induction, extracts 3 days after treatment. As to the method:
as §2
Drugs were added 12 h post-induction at the indicated doses. Protein extracts were collected 3 days after treatment and analyzed by immunoblots. […] The aggregates formed in these cells were below the detection level of the filter retardation assay precluding a robust quantitative analysis of the effects of the molecules on aggregate. However, because both aggregates and pathological symptoms are reversible with blockade of pathological protein expression, it is likely that aggregates in NG108-15 cells will diminish as a consequence of decreased accumulation of T73 by treating neurons with Psi114 or Cl-Psi114.

For data set [7], the system named is 293T cells.
Data set [8] relates to full length endogenous Huntingtin in HD patient lymphoblastoid cell line. Briefly: full length endogenous Huntingtin in HD patient lymphoblastoid cell line. It is filed as cell-based.
From the text: as §1

Regarding `CCC1(C2=NCCN2)Cc2ccccc2O1` (centres unmarked) [Psi216, Efaroxan], the “activity on Htt48 accumulation” value in data set [1] is “completely inactive”.
Consider `N=C(N)N/N=C/c1c(Cl)cccc1Cl` [Psi114, Guanabenz], for which the “activity in the yeast anti-prion screen” value in data set [2] was “potent activity against yeast prions; also recorded: active in yeast cells”. Moreover, the “levels of aggregated Htt48” value in data set [3] was “decrease in a dose dependent manner; also recorded: delayed”. Moreover, in data set [4], the “effect on levels of full length endogenous Huntingtin” value is recorded as “no effect”. Also, in data set [5], the T73 level result was “reduction of T73 in a dose dependant manner”. Also, the vimentin level result in data set [6] is reported as “remains unaltered”.
Consider `Clc1cccc(Cl)c1N=C1NCCN1` [Psi211, Clonidine], for which the “activity on Htt48 accumulation” value in data set [1] is “completely inactive”.
`Nc1c(/N=N/c2ccc(-c3ccc(/N=N/c4cc(S(=O)(=O)O)c5ccccc5c4N)cc3)cc2)cc(S(=O)(=O)O)c2ccccc12` [Congo red]: the “activity in the Htt48 293T system” value in data set [1] (dose of 500 μM) was “barely detectable activity”.
In the case of `c1ccc(C2CC2)c(OCC2=NCCN2)c1` [Psi214, Cirazoline], the toxicity result in data set [7] is on record as “some toxicity”.
Take `N=C(N)N/N=C/c1c(Cl)ccc(Cl)c1Cl` [Cl-Psi114, Chloroguanabenz]: the “activity in the yeast anti-prion screen” value in data set [2] was “active; also recorded: more active in the yeast anti-prion screen that Psi114”. Also, the “levels of aggregated Htt48” value in data set [3] is “decrease in a dose dependent manner”. Besides, in data set [4], the “effect on levels of full length endogenous Huntingtin” value was “no effect”. Moreover, in data set [8], the “effect on level of full length endogenous Huntingtin” value is given as “no effect”. The T73 level result in data set [5] is given as “reduction of T73 in a dose dependant manner”. Moreover, in data set [6], the vimentin level result was “remains unaltered”.
On to `C1COC(NC(C2CC2)C2CC2)=N1` [Psi215, Rilmenidine], for which, in data set [7], the toxicity result was “some toxicity”.
Take `N=C(N)N` [GuHCL, guanidine hydrochloride]: the “activity in the yeast anti-prion screen” value in data set [2] is “positive control”.
